Measurements from patent US20230085307A1, “PYRIDAZINONE COMPOUND AND HERBICIDE” (NISSAN CHEMICAL CORPORATION, priority 2019, published 2023).

What was measured:
velvetleaf [1] = assay: Test Example 5: herbicidal effect by foliage application, plastic box (Table 20, symbol M); format: in vivo, velvetleaf (Abutilon theophrasti); settings: foliage application, three weeks after application
Procedure, shortened: (§1)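 Plants sown in sterilized diluvial soil and grown 14 days in a greenhouse at 25° C to 30° C, then sprayed on the foliage with the compound's emulsion diluted in water to a predetermined herbicide amount. Injury to weeds and crops scored three weeks after application on a visual rating scale.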

windgrass [2] = assay: Test Example 4: herbicidal effect by soil treatment (Table 19, symbol L); format: in vivo, windgrass (Apera spica-venti)
Procedure, shortened: (§2)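 Seeds were sown in sterilized diluvial soil and covered with about 1.5 cm of soil. An emulsion formulation diluted with water to a predetermined herbicide amount was sprayed evenly onto the soil surface. Plants grew in a greenhouse at 25° C. to 30° C., and the effect was scored three weeks after application using criteria from an earlier test.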

redroot pigweed [3] = assay: Test Example 5: herbicidal effect by foliage application, plastic box (Table 20, symbol N); format: in vivo, redroot pigweed (Amaranthus retroflexus); settings: foliage application, AAH 320 g/ha, three weeks after application
Procedure, shortened: as §1

chickweed [4] = assay: Test Example 5: herbicidal effect by foliage application, plastic box (Table 20, symbol P); format: in vivo, common chickweed (Stellaria media); settings: foliage application, AAH 320 g/ha, three weeks after application
Procedure, shortened: as §1

green foxtail [5] = assay: Test Example 4: herbicidal effect by soil treatment (Table 19, symbol G); format: in vivo, green foxtail (Setaria viridis)
Procedure, shortened: as §2

lambsquarters [6] = assay: Test Example 4: herbicidal effect by soil treatment (Table 19, symbol O); format: in vivo, lambsquarters (Chenopodium album)
Procedure, shortened: as §2

Italian ryegrass [7] = assay: Test Example 5: herbicidal effect by foliage application, plastic box (Table 20, symbol K); format: in vivo, Italian ryegrass (Lolium multiflorum); settings: foliage application, three weeks after application
Procedure, shortened: as §1

barnyard grass [8] = assay: Test Example 5: herbicidal effect by foliage application, plastic box (Table 20, symbol H); format: in vivo, barnyard grass (Echinochloa crus-galli); settings: foliage application, three weeks after application
Procedure, shortened: as §1

southern crabgrass [9] = assay: Test Example 5: herbicidal effect by foliage application, plastic box (Table 20, symbol F); format: in vivo, southern crabgrass (Digitaria ciliaris); settings: foliage application, three weeks after application
Procedure, shortened: as §1

wild oat [10] = assay: Test Example 4: herbicidal effect by soil treatment (Table 19, symbol I); format: in vivo, wild oat (Avena fatua)
Procedure, shortened: as §2

rice flat sedge = assay: Test Example 3: herbicidal effect by foliage application, Wagner pot (Table 18, symbol E); format: in vivo, rice flat sedge (Cyperus iria)
Procedure, shortened: (§3)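 Plants were sown in alluvial soil held under 0.1–0.5 cm standing water and grown 14 days in a greenhouse at 25–30 °C. An emulsifiable formulation, water-diluted to the set dose, was then sprayed onto the foliage, and effects were scored three weeks later using previously defined criteria.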

Chinese sprangletop = assay: Test Example 3: herbicidal effect by foliage application, Wagner pot (Table 18, symbol D); format: in vivo, chinese sprangletop (Leptochloa chinensis)
Procedure, shortened: as §3

lambsquarters [11] = assay: Test Example 5: herbicidal effect by foliage application, plastic box (Table 20, symbol O); format: in vivo, lambsquarters (Chenopodium album); settings: foliage application, three weeks after application
Procedure, shortened: as §1

Italian ryegrass [12] = assay: Test Example 4: herbicidal effect by soil treatment (Table 19, symbol K); format: in vivo, Italian ryegrass (Lolium multiflorum)
Procedure, shortened: as §2

green foxtail [13] = assay: Test Example 5: herbicidal effect by foliage application, plastic box (Table 20, symbol G); format: in vivo, green foxtail (Setaria viridis); settings: foliage application, three weeks after application
Procedure, shortened: as §1

blackgrass [14] = assay: Test Example 5: herbicidal effect by foliage application, plastic box (Table 20, symbol J); format: in vivo, blackgrass (Alopecurus myosuroides); settings: foliage application, three weeks after application
Procedure, shortened: as §1

velvetleaf [15] = assay: Test Example 4: herbicidal effect by soil treatment (Table 19, symbol M); format: in vivo, velvetleaf (Abutilon theophrasti)
Procedure, shortened: as §2

false cleavers = assay: Test Example 4: herbicidal effect by soil treatment (Table 19, symbol Q); format: in vivo, false cleavers (Galium spurium)
Procedure, shortened: as §2

windgrass [16] = assay: Test Example 5: herbicidal effect by foliage application, plastic box (Table 20, symbol L); format: in vivo, windgrass (Apera spica-venti); settings: foliage application, three weeks after application
Procedure, shortened: as §1

chickweed [17] = assay: Test Example 4: herbicidal effect by soil treatment (Table 19, symbol P); format: in vivo, common chickweed (Stellaria media)
Procedure, shortened: as §2

wild oat [18] = assay: Test Example 5: herbicidal effect by foliage application, plastic box (Table 20, symbol I); format: in vivo, wild oat (Avena fatua); settings: foliage application, three weeks after application
Procedure, shortened: as §1

persian speedwell [19] = assay: Test Example 4: herbicidal effect by soil treatment (Table 19, symbol R); format: in vivo, Persian speedwell (Veronica persica)
Procedure, shortened: as §2

barnyard grass [20] = assay: Test Example 3: herbicidal effect by foliage application, Wagner pot (Table 18, symbol H); format: in vivo, barnyard grass (Echinochloa crus-galli)
Procedure, shortened: as §3

southern crabgrass [21] = assay: Test Example 4: herbicidal effect by soil treatment (Table 19, symbol F); format: in vivo, southern crabgrass (Digitaria ciliaris)
Procedure, shortened: as §2

barnyard grass [22] = assay: Test Example 4: herbicidal effect by soil treatment (Table 19, symbol H); format: in vivo, barnyard grass (Echinochloa crus-galli)
Procedure, shortened: as §2

persian speedwell [23] = assay: Test Example 5: herbicidal effect by foliage application, plastic box (Table 20, symbol R); format: in vivo, Persian speedwell (Veronica persica); settings: foliage application, three weeks after application
Procedure, shortened: as §1

blackgrass [24] = assay: Test Example 4: herbicidal effect by soil treatment (Table 19, symbol J); format: in vivo, blackgrass (Alopecurus myosuroides)
Procedure, shortened: as §2

redroot pigweed [25] = assay: Test Example 4: herbicidal effect by soil treatment (Table 19, symbol N); format: in vivo, redroot pigweed (Amaranthus retroflexus); settings: amount of applied herbicide 320 g/ha
Procedure, shortened: as §2

[26] = amount of applied herbicide 320 g/ha

CCCC(=O)Oc1c(OC)nn(C)c(=O)c1-c1c(-c2ccc(F)c(F)c2)sc2ccccc12 [1-173]
M: velvetleaf, herbicidal effect (velvetleaf [1]; AAH 320 g/ha): 5 (Herbicidal rate of 90% or more (almost completely withered))
L: windgrass, herbicidal effect rating (windgrass [2]; AAH 320 g/ha): 0 (Herbicidal rate of 5% or less (almost no effect))
N: redroot pigweed, herbicidal effect (redroot pigweed [3]): 5 (Herbicidal rate of 90% or more (almost completely withered))
P: chickweed, herbicidal effect (chickweed [4]): 5 (Herbicidal rate of 90% or more (almost completely withered))
G: green foxtail, herbicidal effect rating (green foxtail [5]; AAH 320 g/ha): 5 (Herbicidal rate of 90% or more (almost completely withered))
O: lambsquarters, herbicidal effect rating (lambsquarters [6]; AAH 320 g/ha): 5 (Herbicidal rate of 90% or more (almost completely withered))
K: Italian ryegrass, herbicidal effect (Italian ryegrass [7]; AAH 320 g/ha): 4 (Herbicidal rate of 70% or more and less than 90%)
H: barnyard grass, herbicidal effect (barnyard grass [8]; AAH 320 g/ha): 0 (Herbicidal rate of 5% or less (almost no effect))
F: southern crabgrass, herbicidal effect (southern crabgrass [9]; AAH 320 g/ha): 0 (Herbicidal rate of 5% or less (almost no effect))
I: wild oat, herbicidal effect rating (wild oat [10]; AAH 320 g/ha): 0 (Herbicidal rate of 5% or less (almost no effect))
herbicidal effect on E (rice flat sedge), rating 0-5 (rice flat sedge; 320 g/ha): 5 (Herbicidal rate of 90% or more (almost completely withered))
herbicidal effect on D (Chinese sprangletop), rating 0-5 (Chinese sprangletop; 320 g/ha): 0 (Herbicidal rate of 5% or less (almost no effect))
O: lambsquarters, herbicidal effect (lambsquarters [11]; AAH 320 g/ha): 5 (Herbicidal rate of 90% or more (almost completely withered))
K: Italian ryegrass, herbicidal effect rating (Italian ryegrass [12]; AAH 320 g/ha): 2 (Herbicidal rate of 20% or more and less than 40%)
G: green foxtail, herbicidal effect (green foxtail [13]; AAH 320 g/ha): 3 (Herbicidal rate of 40% or more and less than 70%)
J: blackgrass, herbicidal effect (blackgrass [14]; AAH 320 g/ha): 1 (Herbicidal rate of 5% or more and less than 20%)
M: velvetleaf, herbicidal effect rating (velvetleaf [15]; AAH 320 g/ha): 4 (Herbicidal rate of 70% or more and less than 90%)
Q: false cleavers, herbicidal effect rating (false cleavers; AAH 320 g/ha): 3 (Herbicidal rate of 40% or more and less than 70%)
L: windgrass, herbicidal effect (windgrass [16]; AAH 320 g/ha): 0 (Herbicidal rate of 5% or less (almost no effect))
P: chickweed, herbicidal effect rating (chickweed [17]; AAH 320 g/ha): 5 (Herbicidal rate of 90% or more (almost completely withered))
I: wild oat, herbicidal effect (wild oat [18]; AAH 320 g/ha): 1 (Herbicidal rate of 5% or more and less than 20%)
R: persian speedwell, herbicidal effect rating (persian speedwell [19]; AAH 320 g/ha): 5 (Herbicidal rate of 90% or more (almost completely withered))
herbicidal effect on H (barnyard grass), rating 0-5 (barnyard grass [20]; 320 g/ha): 1 (Herbicidal rate of 5% or more and less than 20%)
F: southern crabgrass, herbicidal effect rating (southern crabgrass [21]; AAH 320 g/ha): 0 (Herbicidal rate of 5% or less (almost no effect))
H: barnyard grass, herbicidal effect rating (barnyard grass [22]; AAH 320 g/ha): 0 (Herbicidal rate of 5% or less (almost no effect))
R: persian speedwell, herbicidal effect (persian speedwell [23]; AAH 320 g/ha): 5 (Herbicidal rate of 90% or more (almost completely withered))
J: blackgrass, herbicidal effect rating (blackgrass [24]; AAH 320 g/ha): 0 (Herbicidal rate of 5% or less (almost no effect))

CCSc1ccc(-c2oc3ccc(F)cc3c2-c2c(O)c(C)nn(C)c2=O)cc1 [9-039]
herbicidal effect on velvetleaf (M) (velvetleaf [1]; 320 g/ha): 5 (Herbicidal rate of 90% or more (almost completely withered))
L: windgrass, herbicidal effect grade (windgrass [2]; [26]): 0 (Herbicidal rate of 5% or less (almost no effect))
G: green foxtail, herbicidal effect grade (green foxtail [5]; [26]): 5 (Herbicidal rate of 90% or more (almost completely withered))
O: lambsquarters, herbicidal effect grade (lambsquarters [6]; [26]): 4 (Herbicidal rate of 70% or more and less than 90%)
herbicidal effect on Italian ryegrass (K) (Italian ryegrass [7]; 320 g/ha): 5 (Herbicidal rate of 90% or more (almost completely withered))
herbicidal effect on barnyard grass (H) (barnyard grass [8]; 320 g/ha): 3 (Herbicidal rate of 40% or more and less than 70%)
herbicidal effect on southern crabgrass (F) (southern crabgrass [9]; 320 g/ha): 5 (Herbicidal rate of 90% or more (almost completely withered))
I: wild oat, herbicidal effect grade (wild oat [10]; [26]): 0 (Herbicidal rate of 5% or less (almost no effect))
Herbicidal effect on E (rice flat sedge), foliage application (rice flat sedge; [26]): 5 (Herbicidal rate of 90% or more (almost completely withered))
Herbicidal effect on D (Chinese sprangletop), foliage application (Chinese sprangletop; [26]): 1 (Herbicidal rate of 5% or more and less than 20%)
herbicidal effect on lambsquarters (O) (lambsquarters [11]; 320 g/ha): 5 (Herbicidal rate of 90% or more (almost completely withered))
K: Italian ryegrass, herbicidal effect grade (Italian ryegrass [12]; [26]): 5 (Herbicidal rate of 90% or more (almost completely withered))
herbicidal effect on green foxtail (G) (green foxtail [13]; 320 g/ha): 5 (Herbicidal rate of 90% or more (almost completely withered))
herbicidal effect on blackgrass (J) (blackgrass [14]; 320 g/ha): 4 (Herbicidal rate of 70% or more and less than 90%)
M: velvetleaf, herbicidal effect grade (velvetleaf [15]; [26]): 3 (Herbicidal rate of 40% or more and less than 70%)
Q: false cleavers, herbicidal effect grade (false cleavers; [26]): 0 (Herbicidal rate of 5% or less (almost no effect))
herbicidal effect on windgrass (L) (windgrass [16]; 320 g/ha): 5 (Herbicidal rate of 90% or more (almost completely withered))
P: chickweed, herbicidal effect grade (chickweed [17]; [26]): 3 (Herbicidal rate of 40% or more and less than 70%)
herbicidal effect on wild oat (I) (wild oat [18]; 320 g/ha): 4 (Herbicidal rate of 70% or more and less than 90%)
R: persian speedwell, herbicidal effect grade (persian speedwell [19]; [26]): 5 (Herbicidal rate of 90% or more (almost completely withered))
Herbicidal effect on H (barnyard grass), foliage application (barnyard grass [20]; [26]): 5 (Herbicidal rate of 90% or more (almost completely withered))
F: southern crabgrass, herbicidal effect grade (southern crabgrass [21]; [26]): 4 (Herbicidal rate of 70% or more and less than 90%)
N: redroot pigweed, herbicidal effect grade (redroot pigweed [25]): 5 (Herbicidal rate of 90% or more (almost completely withered))
H: barnyard grass, herbicidal effect grade (barnyard grass [22]; [26]): 2 (Herbicidal rate of 20% or more and less than 40%)
herbicidal effect on persian speedwell (R) (persian speedwell [23]; 320 g/ha): 5 (Herbicidal rate of 90% or more (almost completely withered))
J: blackgrass, herbicidal effect grade (blackgrass [24]; [26]): 0 (Herbicidal rate of 5% or less (almost no effect))
